Measurements published in patent publication US10562898B2, “Substituted benzenesulfonamides as inhibitors of alpha-4 beta-7 integrin activity” (EA PHARMA CO., LTD., priority 2016, dated 2020).
pIC50: −log10 of the molar value.

Each compound was assayed against T1, α4β1 integrin (Homo sapiens, UniProt P05556+P13612) (assay: VCAM-1/α4β1 integrin binding inhibitory activity evaluation test (Jurkat cells binding to VCAM-1/Fc)). Conditions: recombinant human VCAM-1/Fc.
T1 construct: a cell line Jurkat, which is known to express α4β1 integrin; endogenous in cells; host or cells: Jurkat (human T cell line)
T1 sequence (P13612 34-1032): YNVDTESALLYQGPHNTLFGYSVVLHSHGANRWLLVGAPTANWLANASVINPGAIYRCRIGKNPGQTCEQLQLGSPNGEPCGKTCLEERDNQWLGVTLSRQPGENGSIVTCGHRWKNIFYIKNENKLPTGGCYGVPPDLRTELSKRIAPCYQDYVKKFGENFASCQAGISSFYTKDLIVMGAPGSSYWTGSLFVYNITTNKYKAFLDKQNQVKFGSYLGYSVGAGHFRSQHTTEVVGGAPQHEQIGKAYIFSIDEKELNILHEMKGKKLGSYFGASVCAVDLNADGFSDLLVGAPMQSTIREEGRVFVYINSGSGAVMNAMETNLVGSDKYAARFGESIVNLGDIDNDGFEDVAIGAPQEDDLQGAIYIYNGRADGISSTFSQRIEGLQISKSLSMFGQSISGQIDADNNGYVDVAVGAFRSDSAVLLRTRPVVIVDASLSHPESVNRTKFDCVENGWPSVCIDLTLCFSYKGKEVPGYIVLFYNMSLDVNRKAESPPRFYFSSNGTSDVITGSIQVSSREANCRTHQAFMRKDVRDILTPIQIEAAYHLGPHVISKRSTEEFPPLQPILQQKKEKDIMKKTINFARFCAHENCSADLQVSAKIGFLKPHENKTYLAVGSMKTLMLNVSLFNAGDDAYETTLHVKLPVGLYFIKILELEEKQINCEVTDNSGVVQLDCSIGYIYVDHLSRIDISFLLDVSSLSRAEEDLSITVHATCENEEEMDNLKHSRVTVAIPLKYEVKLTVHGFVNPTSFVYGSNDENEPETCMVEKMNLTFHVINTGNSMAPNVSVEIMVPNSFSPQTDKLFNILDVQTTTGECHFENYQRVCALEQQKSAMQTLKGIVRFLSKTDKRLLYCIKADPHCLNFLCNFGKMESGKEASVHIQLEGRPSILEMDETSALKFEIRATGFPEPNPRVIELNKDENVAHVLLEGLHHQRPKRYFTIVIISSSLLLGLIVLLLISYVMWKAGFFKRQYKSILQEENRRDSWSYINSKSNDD
T1 sequence (P05556 21-798): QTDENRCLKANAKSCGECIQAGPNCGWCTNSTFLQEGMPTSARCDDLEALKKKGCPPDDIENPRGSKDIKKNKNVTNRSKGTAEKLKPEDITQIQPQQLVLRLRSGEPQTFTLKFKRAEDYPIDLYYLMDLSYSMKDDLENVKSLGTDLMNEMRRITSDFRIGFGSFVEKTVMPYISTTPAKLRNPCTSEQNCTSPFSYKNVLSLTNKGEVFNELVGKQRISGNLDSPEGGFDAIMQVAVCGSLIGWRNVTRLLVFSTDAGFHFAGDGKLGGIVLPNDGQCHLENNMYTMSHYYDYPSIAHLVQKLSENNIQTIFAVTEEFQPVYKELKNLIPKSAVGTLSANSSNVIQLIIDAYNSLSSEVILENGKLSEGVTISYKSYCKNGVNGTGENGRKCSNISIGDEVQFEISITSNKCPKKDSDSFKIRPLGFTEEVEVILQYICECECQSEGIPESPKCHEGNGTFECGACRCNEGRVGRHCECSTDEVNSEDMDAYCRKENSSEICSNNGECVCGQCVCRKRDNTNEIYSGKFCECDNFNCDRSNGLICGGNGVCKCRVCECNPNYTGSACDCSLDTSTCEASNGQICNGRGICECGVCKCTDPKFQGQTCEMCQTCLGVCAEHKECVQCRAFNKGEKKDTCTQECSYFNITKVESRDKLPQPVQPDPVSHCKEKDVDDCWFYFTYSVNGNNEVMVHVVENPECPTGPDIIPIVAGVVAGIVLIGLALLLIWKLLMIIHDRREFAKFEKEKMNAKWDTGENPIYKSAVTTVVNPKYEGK
Format: cell-based
Experimental: (1) VCAM-1/α4β1 Integrin Binding Inhibitory Activity Evaluation Test
Each test substance was measured in terms of an ability to inhibit the VCAM-1 binding of a human T cell line, namely, a cell line Jurkat, which is known to express α4β1 integrin.
A solution of recombinant human VCAM-1/Fc (R&D Systems, Inc.) (1 μg/mL) diluted with a buffer A (carbonate buffer, pH 9.6) was placed in an amount of 50 μL/well in a 96-well microtiter plate, followed by incubation at 4° C. overnight. After the plate was washed with PBS once, 150 μL/well of Block Ace (Snow Brand Milk Products Co., Ltd.) was added, followed by incubation at room temperature for 2 hours. After removal, the plate was washed with PBS once.
Then, 100 μL of the Jurkat cells (2×10^6 cells/mL) and 100 μL of the test substance at each of various concentrations diluted with a binding buffer (DMEM containing 40 mM HEPES, 0.2% BSA, and 4 mM MnCl2) were added to the plate coated with the VCAM-1/Fc (5×10^5 cells/well), followed by incubation at 30° C. for 15 to 60 minutes. After the cells were bound to the wells, the plate was washed with PBS to remove unbound cells. A buffer C (PBS containing 1.5% Triton X-100) was added in an amount 50 μL/well to the plate to lyse the bound Jurkat cells. After 30 μL of a substrate buffer (Promega, CytoTox 96 Non-Radioactive Cytotoxicity Assay) was added to 30 μL of the cell lysate, a reaction was allowed to proceed at room temperature in the dark for 30 minutes. After 30 μL of a stop solution (Promega, CytoTox 96 Non-Radioactive Cytotoxicity Assay) was added to each, and then an absorbance at 490 nm was measured using a plate reader. The absorbance obtained here represents a detection result of an activity of lactate dehydrogenase (LDH) eluted in the supernatant of each well, that is, the absorbance is proportional to the number of Jurkat cells bound to the VCAM-1 and thus remaining on the plate. The test was performed in duplicate. Provided that the absorbance of a well containing no test substance was 100%, a cell binding rate with the test substance at each of the various concentrations was figured out, and a concentration IC50 which brought about 50% binding inhibition was calculated.

pIC50 | Structure (SMILES)
5.92 | COC1(C(=O)Nc2ccc(S(=O)(=O)Nc3cc(F)c(C(=O)N[C@@H](Cc4ccc(-n5c(=O)c6ccncc6n(C)c5=O)cc4)C(=O)O)cc3F)cc2)CC1 [Compound A16]
5.64 | Cc1cn(C)c(=O)n(-c2ccc(C[C@H](NC(=O)c3cc(F)c(NS(=O)(=O)c4ccc(NC(=O)C#CC(C)(C)C)cc4)cc3F)C(=O)O)cn2)c1=O [Compound A68]
4.82 | Cc1cn(C)c(=O)n(-c2ccc(C[C@H](NC(=O)c3cc(F)c(NS(=O)(=O)c4ccc(NC(=O)C(C)C)cc4)cc3F)C(=O)O)cn2)c1=O [Compound A71]
6.36 | Cn1c(=O)n(-c2ccc(C[C@H](NC(=O)c3cc(F)c(NS(=O)(=O)c4ccc(NC(=O)C(C)(C)C)cc4)cc3F)C(=O)O)cc2)c(=O)c2ccncc21 [Compound A1, (2S)-2-[[4-[[4-(2,2-dimethylpropanoylamino)phenyl]sulfonylamino]-2,5-difluoro-benzoyl]amino]-3-[4-(1-methyl-2,4-dioxo-pyrido[3,4-d]pyrimidin-3-yl)phenyl]propanoic acid]
5.64 | Cn1c2c(c(=O)n(-c3ccc(C[C@H](NC(=O)c4cc(F)c(NS(=O)(=O)c5ccc(NC(=O)C(C)(C)C)cc5)cc4F)C(=O)O)cn3)c1=O)CCOC2 [Compound A40]
4.68 | Cc1cn(C)c(=O)n(-c2ccc(C[C@H](NC(=O)c3cc(F)c(NS(=O)(=O)c4ccc(NC(=O)C(C)(C)C)s4)cc3F)C(=O)O)cn2)c1=O [Compound A73]
6.09 | Cn1c(=O)n(-c2ccc(C[C@H](NC(=O)c3cc(F)c(NS(=O)(=O)c4ccc(NC(=O)C5(O)CC5)cc4)cc3F)C(=O)O)cc2)c(=O)c2ccncc21 [Compound A23]
5.34 | Cn1c(=O)n(-c2ccc(C[C@H](NC(=O)c3cc(F)c(NS(=O)(=O)c4ccc(NC(=O)C(C)(C)C)cc4)cc3F)C(=O)O)cn2)c(=O)c2ccncc21 [Compound A26]
5.47 | Cn1c2c(c(=O)n(-c3ccc(C[C@H](NC(=O)c4cc(F)c(NS(=O)(=O)c5ccc(NC(=O)C(C)(C)C)cc5)cc4F)C(=O)O)cn3)c1=O)COCC2 [Compound A44]
< 4.51 | Cn1ccc(=O)n(-c2ccc(C[C@H](NC(=O)c3cc(F)c(NS(=O)(=O)c4ccc(NC(=O)C5CCCC5)cc4)cc3F)C(=O)O)cn2)c1=O [Compound A64]
5.42 | Cc1c(C)n(C)c(=O)n(-c2ccc(C[C@H](NC(=O)c3cc(F)c(NS(=O)(=O)c4ccc(N(C)C(=O)C(C)(C)C)cc4)cc3F)C(=O)O)cc2)c1=O [Compound A35]
5.60 | Cn1ccc(=O)n(-c2ccc(C[C@H](NC(=O)c3cc(F)c(NS(=O)(=O)c4ccc(NC(=O)C(C)(C)C)cc4)cc3F)C(=O)O)cc2)c1=O [Compound A42]
6.00 | Cn1c2c(c(=O)n(-c3ccc(C[C@H](NC(=O)c4cc(F)c(NS(=O)(=O)c5ccc(NC(=O)C(C)(C)C)cc5)cc4F)C(=O)O)cc3)c1=O)COCC2 [Compound A33]
5.44 | Cc1c(C)n(C)c(=O)n(-c2ccc(C[C@H](NC(=O)c3cc(F)c(NS(=O)(=O)c4ccc(NC(=O)C(C)(C)C)cc4)cc3F)C(=O)O)cn2)c1=O [Compound A28]
< 4.51 | Cn1ccc(=O)n(-c2ccc(C[C@H](NC(=O)c3cc(F)c(NS(=O)(=O)c4ccc(NC(=O)C(C)(C)CO)cc4)cc3F)C(=O)O)cn2)c1=O [Compound A62]
